The results in this text go back to US10584129B2, “Substituted 6,7-dihydropyrazolo[1,5-a]pyrazines as negative allosteric modulators of mGluR2 receptors” (Janssen Pharmaceutica NV, priority 2013, dated 2020).

This test deals with Wiga rats. Description: Reserpine interaction test in rats. In kind it is in vivo, rat. To be noted: PO, Time 60, reserpine 10 mg/kg SC, -1 h; for ED50: Rattus norvegicus, read-out: ED50 reversal of reserpine-induced ptosis.

For the compound `CNc1cc(-c2cnn3c2C(=O)N(c2ccc(C(F)(F)F)cc2)C[C@@H]3C)ccn1` [compound 147], the ED50 came out at 7.94 mg/kg. The same measure, in the same setting: next, `COc1cc(Cl)ccc1N1CC(C)n2ncc(-c3ccnc(C)c3)c2C1=O` (stereo not shown) [compound 161]: 3.15 mg/kg; `Cc1cc(-c2cnn3c2C(=O)N(c2ccc(Cl)cc2Cl)C[C@@H]3C)ccn1` [compound 167]: 0.1 mg/kg.

In the case of `Cc1cc(-c2cnn3c2C(=O)N(c2ccc(C(F)(F)F)cc2)CC3(C)C)ccn1` [compound 171], the ED50 reversal of reserpine-induced ptosis was 5 mg/kg. As for `Cc1cc(-c2cnn3c2C(=O)N(c2ccc(Cl)cc2C)CC3C)ccn1` (stereo not shown) [compound 172], the median effective dose (ED50) worked out at 1.26 mg/kg. Still for that read-out and setting: for `Cc1cc(-c2cnn3c2C(=O)N(c2ccc(C(F)(F)F)cn2)CC3C)cc(C)n1` (stereo not shown) [compound 194] the value was 5 mg/kg. `CCOc1ccc(Cl)c(N2CC(C)n3ncc(-c4ccnc(C)c4)c3C2=O)n1` (stereo not shown) [compound 195]: the 50% effective dose (ED50) came to 1.25 mg/kg.
